{
  "source": "ChEMBL document CHEMBL5107999",
  "about": "“Synthesis and biological evaluation of 4-hydroxy-methylpiperidinyl-N-benzyl-acylarylhydrazone hybrids designed as novel multifunctional drug candidates for Alzheimer's disease” (Bioorg Med Chem, 2022)",
  "key": {"[1]": {"molecular_target": "T1, Acetylcholinesterase (Electrophorus electricus, UniProt O42275)", "T1 sequence (O42275 whole entry)": "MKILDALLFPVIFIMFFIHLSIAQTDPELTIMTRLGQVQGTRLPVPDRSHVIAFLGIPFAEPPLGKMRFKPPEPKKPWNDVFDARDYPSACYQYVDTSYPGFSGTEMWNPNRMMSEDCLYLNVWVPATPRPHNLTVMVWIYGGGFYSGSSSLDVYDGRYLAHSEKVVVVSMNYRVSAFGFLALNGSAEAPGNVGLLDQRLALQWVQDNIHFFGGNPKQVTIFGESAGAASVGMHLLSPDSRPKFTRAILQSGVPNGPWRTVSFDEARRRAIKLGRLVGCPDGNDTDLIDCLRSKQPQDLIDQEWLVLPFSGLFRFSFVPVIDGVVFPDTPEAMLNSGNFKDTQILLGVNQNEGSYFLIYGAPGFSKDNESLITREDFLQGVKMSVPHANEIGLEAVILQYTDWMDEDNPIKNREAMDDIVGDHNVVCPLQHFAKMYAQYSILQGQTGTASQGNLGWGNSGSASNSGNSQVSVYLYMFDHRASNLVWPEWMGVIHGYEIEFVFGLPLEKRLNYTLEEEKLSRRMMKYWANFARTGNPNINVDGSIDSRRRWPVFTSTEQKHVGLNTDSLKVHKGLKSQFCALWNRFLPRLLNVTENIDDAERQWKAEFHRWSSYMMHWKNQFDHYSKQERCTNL", "test": "Inhibition of Electrophorus electricus AchE using acetylthiocholine iodide as substrate preincubated for 10 mins followed by substrate addition by spectrophotometric based Ellman's method"}, "[2]": {"molecular_target": "Cholinesterase (Equus caballus, UniProt P81908)", "sequence (P81908 whole entry)": "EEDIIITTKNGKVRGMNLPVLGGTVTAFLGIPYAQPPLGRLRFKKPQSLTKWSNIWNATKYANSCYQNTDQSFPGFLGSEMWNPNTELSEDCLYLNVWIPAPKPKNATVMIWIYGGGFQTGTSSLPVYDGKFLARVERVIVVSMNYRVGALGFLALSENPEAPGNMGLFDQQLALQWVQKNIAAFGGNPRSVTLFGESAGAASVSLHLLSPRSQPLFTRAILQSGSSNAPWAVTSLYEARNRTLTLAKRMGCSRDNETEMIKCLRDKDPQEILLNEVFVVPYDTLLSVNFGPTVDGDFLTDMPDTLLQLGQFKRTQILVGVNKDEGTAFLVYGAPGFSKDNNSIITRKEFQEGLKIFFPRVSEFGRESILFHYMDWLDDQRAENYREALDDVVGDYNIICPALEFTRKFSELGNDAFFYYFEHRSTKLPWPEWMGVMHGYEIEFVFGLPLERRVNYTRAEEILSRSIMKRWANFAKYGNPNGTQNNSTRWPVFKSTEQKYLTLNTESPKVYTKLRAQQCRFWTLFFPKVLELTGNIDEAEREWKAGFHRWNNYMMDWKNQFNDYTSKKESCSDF", "test": "Inhibition of equine serum BuChE using butyrylthiocholine as substrate preincubated for 10 mins followed by substrate addition by spectrophotometric based Ellman's method"}, "[3]": {"test": "Selectivity ratio, ratio of IC50 for equine serum BuChE to IC50 for Electrophorus electricus AchE"}, "[4]": {"system": "HT-29", "test": "Cytotoxicity against human HT-29 cells assessed as reduction in cell viability upto 30 uM incubated for 24 hrs by calcein/propidium iodide assay", "format": "toxicity, cell-based", "settings": "ht-29, 24 h"}, "[5]": {"molecular_target": "Acetylcholinesterase (Electrophorus electricus) (UniProt O42275)", "sequence (O42275 24-633 limits assumed)": "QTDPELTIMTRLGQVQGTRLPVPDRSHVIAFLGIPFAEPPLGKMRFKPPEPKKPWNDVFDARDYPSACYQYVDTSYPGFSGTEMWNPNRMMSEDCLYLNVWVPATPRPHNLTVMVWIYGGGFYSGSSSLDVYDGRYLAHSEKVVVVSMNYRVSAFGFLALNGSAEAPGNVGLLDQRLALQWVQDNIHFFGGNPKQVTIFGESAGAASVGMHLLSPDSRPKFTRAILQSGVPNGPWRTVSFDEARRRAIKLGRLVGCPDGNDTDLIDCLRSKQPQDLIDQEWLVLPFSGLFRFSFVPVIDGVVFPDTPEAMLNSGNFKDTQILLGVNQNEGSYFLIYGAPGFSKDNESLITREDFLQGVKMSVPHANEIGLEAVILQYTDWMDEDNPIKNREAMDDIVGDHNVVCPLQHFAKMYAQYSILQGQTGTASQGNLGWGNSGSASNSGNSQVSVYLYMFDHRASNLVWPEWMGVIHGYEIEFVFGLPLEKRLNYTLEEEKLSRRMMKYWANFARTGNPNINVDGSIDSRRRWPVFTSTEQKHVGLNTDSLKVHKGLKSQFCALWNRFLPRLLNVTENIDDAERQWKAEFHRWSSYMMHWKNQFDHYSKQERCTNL", "test": "Inhibition of Electrophorus electricus AchE using acetylthiocholine iodide as substrate at 30 uM preincubated for 10 mins followed by substrate addition by spectrophotometric based Ellman's method"}, "[6]": {"system": "SH-SY5Y", "test": "Cytotoxicity against human SH-SY5Y cells assessed as reduction in cell viability at 20 to 80 uM incubated for 24 hrs by MTT assay", "format": "toxicity, cell-based", "settings": "dose 20-80 µM"}, "[7]": {"molecular_target": "T1, Acetylcholinesterase", "test": "Inhibition of Electrophorus electricus AchE assessed as inhibition constant"}, "[8]": {"system": "SH-SY5Y", "test": "Cytotoxicity against human SH-SY5Y cells assessed as reduction in cell viability upto 40 uM incubated for 24 hrs by MTT assay", "format": "toxicity, cell-based"}, "[9]": {"system": "SH-SY5Y", "test": "Neuroprotective activity against t-BOOH induced neurotoxicity in human SH-SY5Y cells assessed as inhibition of ROS formation at 10 uM incubated for 30 mins by H2DCF-DA fluorescence assay", "format": "functional, cell-based"}, "[10]": {"system": "SH-SY5Y", "test": "Antioxidant activity against t-BOOH induced neurotoxicity in human SH-SY5Y cells at 10 uM", "format": "functional"}, "[11]": {"system": "SH-SY5Y", "test": "Neuroprotective activity against t-BOOH induced neurotoxicity in human SH-SY5Y cells assessed as inhibition of ROS formation at 2.5 to 10 uM incubated for 30 mins by H2DCF-DA fluorescence assay", "format": "functional, cell-based", "settings": "dose 2.5-10 µM"}, "[12]": {"system": "SH-SY5Y", "test": "Antioxidant activity against t-BOOH induced neurotoxicity in human SH-SY5Y cells", "format": "functional, cell-based"}, "[13]": {"system": "SH-SY5Y", "test": "Neuroprotective activity against t-BOOH induced neurotoxicity in human SH-SY5Y cells assessed as increase in cell viability at 2.5 to 10 uM incubated for 4 hrs by MTT assay", "format": "functional, cell-based", "settings": "dose 2.5-10 µM"}, "[14]": {"system": "SH-SY5Y", "test": "Neuroprotective activity against amyloid beta (1 to 42) induced neurotoxicity in human SH-SY5Y cells assessed as increase in cell viability at 5 to 10 uM incubated for 4 hrs by MTT assay", "format": "functional, cell-based", "settings": "dose 5-10 µM"}, "[15]": {"molecular_target": "Amyloid-beta precursor protein (Homo sapiens) (UniProt P05067)", "sequence (P05067 whole entry)": "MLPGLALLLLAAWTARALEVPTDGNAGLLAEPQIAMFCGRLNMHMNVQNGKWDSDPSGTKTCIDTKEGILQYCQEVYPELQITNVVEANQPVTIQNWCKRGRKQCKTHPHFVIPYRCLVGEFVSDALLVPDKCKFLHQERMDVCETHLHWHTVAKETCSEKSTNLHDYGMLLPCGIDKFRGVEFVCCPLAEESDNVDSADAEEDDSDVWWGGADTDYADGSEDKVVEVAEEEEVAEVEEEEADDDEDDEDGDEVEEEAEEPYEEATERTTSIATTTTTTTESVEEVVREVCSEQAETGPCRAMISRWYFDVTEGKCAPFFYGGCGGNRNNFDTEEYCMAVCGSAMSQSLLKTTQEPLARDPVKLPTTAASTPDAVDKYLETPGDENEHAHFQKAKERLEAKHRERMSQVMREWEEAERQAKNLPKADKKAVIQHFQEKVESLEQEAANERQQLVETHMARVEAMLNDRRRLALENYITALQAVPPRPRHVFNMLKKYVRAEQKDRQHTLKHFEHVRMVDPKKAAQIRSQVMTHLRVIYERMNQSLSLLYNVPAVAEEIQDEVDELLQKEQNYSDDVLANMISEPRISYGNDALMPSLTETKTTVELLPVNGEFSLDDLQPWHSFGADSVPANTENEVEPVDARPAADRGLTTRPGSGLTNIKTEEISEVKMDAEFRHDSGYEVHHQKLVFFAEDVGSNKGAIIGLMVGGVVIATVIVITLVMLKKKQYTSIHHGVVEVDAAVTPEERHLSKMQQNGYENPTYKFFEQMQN", "test": "Inhibition of amyloid beta (1 to 42) (unknown origin) self aggregation at 75 uM by Thioflavin T based fluorescence assay"}},
  "note": "The source made the active and inactive calls. The rule behind the calls is not given here.",
  "data": [
    {"smiles": "O=C(N/N=C/c1ccccc1Cl)c1ccc(CN2CCC(CO)CC2)cc1", "values": [
      {"measurement": "IC50", "setting": "[1]", "result": 9, "unit": "µM"},
      {"measurement": "IC50", "setting": "[2]", "result": 12.9, "unit": "µM"},
      {"measurement": "Ratio IC50", "setting": "[3]", "result": 1.4},
      {"measurement": "Activity", "setting": "[4]", "result": "Non-Toxic"}
    ]},
    {"smiles": "O=C(N/N=C/c1ccc(O)cc1)c1ccc(CN2CCC(CO)CC2)cc1", "values": [
      {"measurement": "inhibition", "setting": "[5]", "result": 45, "unit": "%"},
      {"measurement": "IC50", "setting": "[1]", "result": 25.1, "unit": "µM"},
      {"measurement": "IC50", "setting": "[2]", "result": "> 30", "unit": "µM"},
      {"measurement": "Ratio IC50", "setting": "[3]", "result": "> 1.2"},
      {"measurement": "Activity", "setting": "[4]", "result": "Non-Toxic"}
    ]},
    {"smiles": "O=C(N/N=C/c1ccc(N2CCCCC2)cc1)c1ccc(CN2CCC(CO)CC2)cc1", "values": [
      {"measurement": "IC50", "setting": "[1]", "result": 12, "unit": "µM"},
      {"measurement": "IC50", "setting": "[2]", "result": "> 30", "unit": "µM"},
      {"measurement": "Ratio IC50", "setting": "[3]", "result": "> 2.5"},
      {"measurement": "Activity", "setting": "[6]", "result": "Toxic"},
      {"measurement": "Activity", "setting": "[4]", "result": "Non-Toxic"},
      {"measurement": "Ki", "setting": "[7]", "result": 6.24, "unit": "µM"}
    ]},
    {"smiles": "O=C(N/N=C/c1ccc(Cl)cc1)c1ccc(CN2CCC(CO)CC2)cc1", "values": [
      {"measurement": "IC50", "setting": "[1]", "result": 5.6, "unit": "µM"},
      {"measurement": "IC50", "setting": "[2]", "result": "> 30", "unit": "µM"},
      {"measurement": "Ratio IC50", "setting": "[3]", "result": "> 5.4"},
      {"measurement": "Activity", "setting": "[8]", "result": "Non-Toxic"},
      {"measurement": "Activity", "setting": "[4]", "result": "Non-Toxic"},
      {"measurement": "Activity", "setting": "[9]", "result": "Active"},
      {"measurement": "inhibition at 10 µM", "setting": "[10]", "result": 24.5, "unit": "%"},
      {"measurement": "Ki", "setting": "[7]", "result": 3.55, "unit": "µM"}
    ]},
    {"smiles": "O=C(N/N=C/c1cccc(Cl)c1)c1ccc(CN2CCC(CO)CC2)cc1", "values": [
      {"measurement": "IC50", "setting": "[1]", "result": 3.3, "unit": "µM"},
      {"measurement": "IC50", "setting": "[2]", "result": 49.8, "unit": "µM"},
      {"measurement": "Ratio IC50", "setting": "[3]", "result": 15},
      {"measurement": "Activity", "setting": "[8]", "result": "Non-Toxic"},
      {"measurement": "Activity", "setting": "[4]", "result": "Non-Toxic"},
      {"measurement": "Activity", "setting": "[9]", "result": "Active"},
      {"measurement": "inhibition at 10 µM", "setting": "[10]", "result": 46, "unit": "%"},
      {"measurement": "Ki", "setting": "[7]", "result": 1.95, "unit": "µM"}
    ]},
    {"smiles": "COc1ccc(/C=N/NC(=O)c2ccc(CN3CCC(CO)CC3)cc2)cc1", "values": [
      {"measurement": "IC50", "setting": "[1]", "result": 15.3, "unit": "µM"},
      {"measurement": "IC50", "setting": "[2]", "result": "> 30", "unit": "µM"},
      {"measurement": "Ratio IC50", "setting": "[3]", "result": "> 2"},
      {"measurement": "Activity", "setting": "[4]", "result": "Non-Toxic"}
    ]},
    {"smiles": "O=C(N/N=C/c1ccccc1F)c1ccc(CN2CCC(CO)CC2)cc1", "values": [
      {"measurement": "IC50", "setting": "[1]", "result": 12, "unit": "µM"},
      {"measurement": "IC50", "setting": "[2]", "result": "> 30", "unit": "µM"},
      {"measurement": "Ratio IC50", "setting": "[3]", "result": "> 2.5"},
      {"measurement": "Activity", "setting": "[4]", "result": "Non-Toxic"}
    ]},
    {"smiles": "COc1ccccc1/C=N/NC(=O)c1ccc(CN2CCC(CO)CC2)cc1", "values": [
      {"measurement": "IC50", "setting": "[1]", "result": 13.5, "unit": "µM"},
      {"measurement": "IC50", "setting": "[2]", "result": 12.9, "unit": "µM"},
      {"measurement": "Ratio IC50", "setting": "[3]", "result": 1},
      {"measurement": "Activity", "setting": "[4]", "result": "Non-Toxic"}
    ]},
    {"smiles": "O=C(N/N=C/c1ccccc1O)c1ccc(CN2CCC(CO)CC2)cc1", "values": [
      {"measurement": "IC50", "setting": "[1]", "result": 5.9, "unit": "µM"},
      {"measurement": "IC50", "setting": "[2]", "result": "> 30", "unit": "µM"},
      {"measurement": "Ratio IC50", "setting": "[3]", "result": "> 5.1"},
      {"measurement": "Activity", "setting": "[6]", "result": "Toxic"},
      {"measurement": "Activity", "setting": "[4]", "result": "Non-Toxic"},
      {"measurement": "Activity", "setting": "[11]", "result": "Active"},
      {"measurement": "inhibition at 10 µM", "setting": "[10]", "result": 67.1, "unit": "%"},
      {"measurement": "IC50", "setting": "[12]", "result": 7.45, "unit": "µM"},
      {"measurement": "Activity", "setting": "[13]", "result": "Active"},
      {"measurement": "Activity", "setting": "[14]", "result": "Active"},
      {"measurement": "inhibition", "setting": "[15]", "result": 30, "unit": "%"},
      {"measurement": "Ki", "setting": "[7]", "result": 3.81, "unit": "µM"}
    ]},
    {"smiles": "O=C(N/N=C/c1cccc(O)c1)c1ccc(CN2CCC(CO)CC2)cc1", "values": [
      {"measurement": "IC50", "setting": "[1]", "result": 13.9, "unit": "µM"},
      {"measurement": "IC50", "setting": "[2]", "result": "> 30", "unit": "µM"},
      {"measurement": "Ratio IC50", "setting": "[3]", "result": "> 2.2"},
      {"measurement": "Activity", "setting": "[4]", "result": "Non-Toxic"}
    ]},
    {"smiles": "O=C(N/N=C/c1cccc(F)c1)c1ccc(CN2CCC(CO)CC2)cc1", "values": [
      {"measurement": "IC50", "setting": "[1]", "result": 8.2, "unit": "µM"},
      {"measurement": "IC50", "setting": "[2]", "result": "> 30", "unit": "µM"},
      {"measurement": "Ratio IC50", "setting": "[3]", "result": "> 3.6"},
      {"measurement": "Activity", "setting": "[4]", "result": "Non-Toxic"}
    ]},
    {"smiles": "O=C(N/N=C/c1ccc(F)cc1)c1ccc(CN2CCC(CO)CC2)cc1", "values": [
      {"measurement": "IC50", "setting": "[1]", "result": 26.4, "unit": "µM"},
      {"measurement": "IC50", "setting": "[2]", "result": "> 30", "unit": "µM"},
      {"measurement": "Ratio IC50", "setting": "[3]", "result": "> 1.1"},
      {"measurement": "Activity", "setting": "[4]", "result": "Non-Toxic"}
    ]}
  ]
}
